Measured values published in patent publication US5773423A (priority 1994, dated 1998).
Entries after “also recorded” stand apart in the source; their conditions may differ. Read-outs that look alike come from different tables or passages of the source.

What was measured:
[1] = biological target: T1, adenosine uptake sites in rat brain membranes (Rattus norvegicus, UniProt O54698); design: Rat striatal membranes, prepared as above; from tissue; host or cells: rat striatal membranes; settings: read-out: Kd value used for [3H]NBTI Ki calculation; cited from earlier work
T1 sequence (O54698 1-457): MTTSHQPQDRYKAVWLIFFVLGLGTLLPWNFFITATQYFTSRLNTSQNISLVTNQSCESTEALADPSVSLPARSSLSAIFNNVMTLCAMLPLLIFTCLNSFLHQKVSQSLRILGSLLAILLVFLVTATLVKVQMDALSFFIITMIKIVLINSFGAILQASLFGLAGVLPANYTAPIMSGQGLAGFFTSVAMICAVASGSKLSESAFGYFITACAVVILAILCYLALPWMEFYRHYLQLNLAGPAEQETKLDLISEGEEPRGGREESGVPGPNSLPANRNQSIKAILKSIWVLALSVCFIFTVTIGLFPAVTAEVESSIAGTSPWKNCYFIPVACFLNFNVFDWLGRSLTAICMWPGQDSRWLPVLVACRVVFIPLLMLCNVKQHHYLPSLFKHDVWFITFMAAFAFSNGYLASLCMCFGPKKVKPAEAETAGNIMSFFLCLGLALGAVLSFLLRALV

[2] = system: locomotor activity in mice; assay: Locomotor activity in mice (open field, Digiscan activity monitor); type: in vivo, mouse (NIH Swiss)
[3] = system: forebrain ischemia in gerbils; assay: Forebrain ischemia in gerbils (bilateral carotid occlusion); type: in vivo, Mongolian gerbil
Method: Ischemia was effected by bilateral occlusion of the carotid arteries. Control gerbils were injected with saline (0.15 ml, i.p. for 10 days). During postischemic recovery, the rate of cerebral blood flow return to pre-ischemia level, neurological status, and survival were monitored. After 7 days, all surviving animals were perfused with formaldehyde for further studies of morphology and histochemistry.

[4] = system: cardiovascular parameters in rats; type: in vivo, rat
Method: Rats (each weighing 300-340 g) were lightly anesthetized using 1.5-2% halothane. They were monitored for heart rate with a tail sensor and blood pressure using the tail cuff method. Peripheral blood flow (scalp) was monitored using a Perimed laser Doppler blood flow apparatus, with a narrow diameter probe placed in contact with the shaved skin above the center of the cranium. A small amount of clear gel was applied to maintain uniform transmission of light. Body temperature was measured using a rectal probe. Respiratory rate was also recorded. Measurements were made at regular intervals: every 2 min for the first ten min period, and every five min thereafter, until 30 min, at which time a 30 min interval was used, until 90 min. […] Drugs were dissolved in a vehicle consisting of an 80:20 mixture of Alkamuls EL-620 and saline, pH 7.4. […] When administered alone, the agonist was given at the beginning of the monitoring period. When coadministered with an antagonist, the antagonist was given at the beginning of the monitoring period, and the agonist was given after 10 min.

[5] = system: injection-induced anxiety in mice; assay: Anxiolytic effect in C57BL/J mice (responses to handling); type: in vivo, mouse (C57BL/J); settings: chronic, 100 μg/kg
[6] = system: NMDA-evoked seizures in mice; type: in vivo
[7] = system: pentamethylenetetrazole-induced convulsions in mice; type: in vivo
[8] = system: electroconvulsive shock in mice; type: in vivo
[9] = system: spontaneous seizures in gerbils; assay: Spontaneous seizures in gerbils on immersion in water maze; type: in vivo, gerbil
Method: During the studies of behavioural responses of gerbils to adenosine receptor stimulation, animals were exposed to the water maze model of spatial learning and memory. The control group (n=15) was injected with the vehicle given i.p. for 6 weeks prior to water maze tests. Twenty-four hours after the last injection, animals were exposed to the swim task. Immersion of animals in the swim tank whose water was kept at 32° C. produced an immediate, long-lasting (up to 2 min) seizure complex that was presented as myoclonic convulsions, followed by a period of rigidity and hind-limb extension.

[10] = system: spatial memory in gerbils; assay: Learning and memory in gerbils (Morris water maze) and open field; type: in vivo, gerbil; settings: chronic
[11] = Basal or systemic blood pressure (chronic use, malignant hypotension); type: in vivo
phospholipase C = settings: acute administration; 'it is known'; cited from earlier work
[12] = Rectal temperature of mice under light halothane anesthesia; settings: 100 μg/kg acute (15 min) or chronic (24 h after last injection)
[13] = biological target: T1, adenosine uptake sites in rat brain membranes; assay: Competition for [3H]NBTI binding at adenosine uptake sites in rat striatal membranes; settings: read-out: Ki (NBTI); 0.3 nM [3H]NBTI, 30 min at 23° C., pH 7.4
[14] = acute, 15 min prior to 10 min ischemia
[15] = chronic 10 days, 10 min ischemia
[16] = acute IB-MECA 10 μg/kg + NMDA 60 mg/kg, NS
[17] = acute IB-MECA 50 μg/kg + NMDA 60 mg/kg, NS
[18] = acute IB-MECA 100 μg/kg + NMDA 60 mg/kg
[19] = acute IB-MECA 100 μg/kg + NMDA 60 mg/kg, P<0.05
[20] = chronic IB-MECA 100 μg/kg + NMDA 60 mg/kg, P<0.05
[21] = acute IB-MECA 100 μg/kg + PMT 75 mg/kg
[22] = acute IB-MECA 100 μg/kg + PMT 75 mg/kg, P<0.05
[23] = chronic IB-MECA 100 μg/kg + PMT 75 mg/kg
[24] = chronic IB-MECA 100 μg/kg + PMT 75 mg/kg, P<0.05

O=[N+]([O-])c1ccc(CSc2ncnc3c2ncn3[C@@H]2O[C@H](CO)[C@@H](O)[C@H]2O)cc1 [[^3 H]NBTI]
Kd [1]: 0.00015 µM

CNC(=O)[C@H]1O[C@@H](n2cnc3c(NCc4cccc(I)c4)ncnc32)[C@H](O)[C@@H]1O [Compound 42, N^6-(3-iodobenzyl)adenosine-5'-N-methyluronamide]
reduction in locomotor activity at chosen dose ([2]; APEC 16 μg/kg, 3-IB-MECA 100 μg/kg i.p.): ca. 50% | minimal effective dose ([2]; Mus musculus, ip, read-out: threshold dose for locomotor depression): 0.01 mg/kg | dose of maximal locomotor depression ([2]; i.p.): about 0.1 mg/kg | scratching behavior (in words) ([2]; i.p.): rapid scratching behavior | locomotor measures (in words) ([2]; i.p., listed as 3-IB-MECA): Vertical activity, stereotype counts, and rotational movement were depressed in a dose-dependent manner; also recorded: average distance per move and average speed were not changed significantly | plateau of locomotor depression below control level ([2]; total distance traveled, higher doses): ca. 60% | postischemic effect (in words) ([3]; acute (15 min) or chronic (10 days), 100 μg/kg, listed as IB-MECA): impairment of postischemic cortical blood flow rate, increased mortality rate, and extensive neuronal destruction in the hippocampus; also recorded: improved post-ischemic blood reflow, increased survival | surviving hippocampal neurons ([3]; acute (15 min), 10 min ischemia, 100 μg/kg): about 30% | survival for 7 days ([3]; acute, 100 μg/kg i.p. 15 min prior to 10 min ischemia): Ten percent | animals with irreversible coma ([3]; acute, 10 min ischemia): 40% | animals with seizures ([3]; acute, 10 min ischemia): 60% | mortality within 12 hr post-ischemia [3, 14]: 90% | time to full recovery of post-ischemic blood flow [3, 14]: over 3.5 hr | end-point mortality ([3]; acute, repeated experiment, FIG. 6, p<0.01): 90% | neurological side effects without ischemia (in words) ([3]; acutely and chronically treated): No neurological side effects were observed | animals with mild hyperactivity [3, 15]: 40% | survival for 7 days (in words) [3, 15]: All those gerbils | time to full recovery of post-ischemic blood flow [3, 15]: about 90 min | survival for 7 days ([3]; chronic 10 days, 20 min ischemia): 90% | surviving hippocampal neurons ([3]; chronic (10 days), 10 min ischemia, 100 μg/kg): > 80% | survival ([3]; chronic, repeated experiment, FIG. 6, p<0.01): 90% | duration of hypotensive effect ([4]; 0.1 mg/kg): 90 min | blood flow and respiratory rates (in words) ([4]; 0.1 mg/kg i.p.): not significant | blood pressure (in words) ([4]; 0.1 mg/kg i.p.): lowering of the blood pressure | heart rate (in words) ([4]; 0.1 mg/kg i.p.): little effect on heart rate | drop in body temperature ([4]; 0.1 mg/kg i.p., after about 30 min post-injection): approximately 0.5 °C | onset of hypotensive effect ([4]; 0.1 mg/kg, post-injection): ≤ 2 min | injection-induced anxiety or stress responses (in words) [5]: almost no injection-induced anxiety or stress behavioral responses | incidence of seizures or degree of neurological impairment (in words) ([6]; acute IB-MECA 10 μg/kg + NMDA 60 mg/kg): no effect on either the incidence of seizures, or the degree of neurological impairment | % Convulsing [6, 16]: 50% | % Mortality at 24 h [6, 16]: 50% | Impairment (scale 1-6) [6, 16]: 2.7 + 0.6 | Ave. Latency to Seizures ([6]; acute IB-MECA 10 μg/kg + NMDA 60 mg/kg, P<0.05): 581 + 107 sec | % Mortality at 24 h [6, 17]: 27% | Impairment (scale 1-6) [6, 17]: 2.0 + 0.5 | % Convulsing ([6]; acute IB-MECA 50 μg/kg + NMDA 60 mg/kg, P<0.05): 10% | Ave. Latency to Seizures ([6]; acute IB-MECA 50 μg/kg + NMDA 60 mg/kg, only one animal): 12 s | % Convulsing [6, 18]: 0% | clinically manifested seizures (in words) [6, 18]: completely absent | duration of lethargic behaviour [6, 18]: 45 to 60 min | % Mortality at 24 h [6, 19]: 10% | Impairment (scale 1-6) [6, 19]: 1.4 + 0.4 | animals with tonic seizures ([6]; chronic IB-MECA 100 μg/kg + NMDA 60 mg/kg): 20% | % Convulsing [6, 20]: 30% | Ave. Latency to Seizures [6, 20]: 689 + 108 sec | Impairment (scale 1-6) [6, 20]: 1.8 + 0.4 | onset of seizures and overall mortality after PMT (in words) ([7]; acute IB-MECA): significantly reduced | Impairment [7, 21]: 4.1 + 0.5 | Mortality 0.4-5 h [7, 21]: 0% | Mortality <15 min [7, 21]: 40% | Mortality >5 h [7, 21]: 10% | Mortality Overall [7, 22]: 50% | Onset of convulsive behavior [7, 22]: 112 s | Mortality 0.4-5 h [7, 23]: 10% | Mortality <15 min [7, 23]: 40% | Mortality >5 h [7, 23]: 0% | Onset of convulsive behavior [7, 23]: 120 s | Impairment [7, 24]: 3.3 + 0.5 | Mortality Overall [7, 24]: 50% | onset of seizures or neurological impairment after PMT (in words) ([7]; chronic IB-MECA + PMT 75 mg/kg): no significant effect on either the onset of seizures or neurological impairment | electroshock threshold voltage (in words) ([8]; acute IB-MECA): insignificant increase of threshold voltage | % Mortality at 24 h ([8]; acute IB-MECA 100 μg/kg + E.S.): 70% | Threshold voltage ([8]; acute IB-MECA 100 μg/kg + E.S.): 106 + 10 | electroshock threshold voltage / postictal mortality (in words) ([8]; chronic IB-MECA): no significant changes in threshold voltage; also recorded: postictal mortality was significantly reduced | Threshold voltage ([8]; chronic IB-MECA 100 μg/kg + E.S.): 118 + 13 | % Mortality at 24 h ([8]; chronic IB-MECA 100 μg/kg + E.S., p<0.05): 30% | seizing activity (in words) ([9]; acute): worsen the seizing activity | seizing activity during swim task (in words) ([9]; chronic, 100 μg/kg i.p. daily for 6 wks): entirely eliminated seizing activity | locomotor behavior in open field (in words) [10]: did not show any significant differences in locomotor behavior | average time to target ([10]; 100 μg/kg daily for 2 months, p<0.04 vs controls 40 sec): 30 s | basal or systemic blood pressure after administration ([11]; from about 70 mm Hg): about 90 mm Hg | increase in basal or systemic blood pressure ([11]; in vivo): 10-30% | stimulation of phospholipase C and inositol 1,4,5-triphosphate production (in words) (phospholipase C): stimulation of phospholipase C and an enhanced production of inositol 1,4,5-triphosphate | rectal temperature (in words) [12]: no significant temperature differences | Ki [13]: 28.2 µM
